Experimental data taken from patent US10246466B2, “Diaryl macrocycles as modulators of protein kinases” (TP THERAPEUTICS, INC., priority 2014, dated 2019).

Legend:
Type in all cases: cell-based
[1] = tested on: T cell lymphoma Karpas-299 cell line (harboring endogenous NPM-ALK fusion gene); experiment: Karpas-299 cell proliferation assay (CellTiter-Glo); conditions: Homo sapiens, 72 hours incubation, read-out: Karpas 299 cell proli. IC50
[2] = tested on: Essential thrombocythemia cell line SET-2 cells (harboring endogenous JAK2 point mutation); experiment: SET-2 cell proliferation assay (CellTiter-Glo); conditions: Homo sapiens, 72 hours incubation, read-out: SET2 cell proli. IC50
[3] = tested on: Colorectal cell line KM12 (harboring endogenous TPM3-TRKA fusion gene); experiment: KM12 cell proliferation assay (CellTiter-Glo); conditions: Homo sapiens, 72 hours incubation, read-out: KM 12 cell prolif. IC50
Protocol: (§1) Colorectal cell lines KM 12 (harboring endogenous TPM3-TRKA fusion gene) cells were cultured in DMEM medium, supplemented with 10% fetal bovine serum and 100 U/mL of penicillin/streptomycin. 5000 cells were seeded in 384 well white plate for 24 hours before compounds treatment. Cell proliferation was measured using CellTiter-Glo luciferase-based ATP detection assay (Promega) following the manufactures's protocol after 72 hours incubation. IC50 determinations were performed using GraphPad Prism software (GraphPad, Inc., San Diego, Calif.).
as §1, with “Alternatively: Colorectal” for “Colorectal”, “line KM12” for “lines KM 12”, “penicillin/streptomycin. […]” for “penicillin/streptomycin.”

SMILES	IC50 [1] [nM]	IC50 [2] [nM]	IC50 [3] [nM]
O=C1NCCCOc2ccc(F)cc2C(CO)Nc2ccn3ncc1c3n2 (stereo not drawn) [Example 99, 12-fluoro-14-(hydroxymethyl)-5,6,7,8,14,15-hexahydro-4H-1,16-ethenopyrazolo[4,3-g][1,5,9,11]benzoxatriazacyclotetradecin-4-one]	506	6850	6.3
C[C@H]1Nc2ccn3ncc(c3n2)C(=O)NCCCOc2ccc(F)cc21 [Example 76-1, (14R)-12-fluoro-14-methyl-5,6,7,8,14,15-hexahydro-4H-1,16-ethenopyrazolo[4,3-g][1,5,9,11]benzoxatriazacyclotetradecin-4-one]	3800	1000	5.8
CN1Cc2cc(F)ccc2OCC(O)CNC(=O)c2cnn3ccc1nc23 (stereo not drawn) [Example 96, 12-fluoro-7-hydroxy-15-methyl-5,6,7,8,14,15-hexahydro-4H-1,16-ethenopyrazolo[4,3-g][1,5,9,11]benzoxatriazacyclotetradecin-4-one]	5000	6000	0.6
O=C1NCCOc2ccc(F)cc2C(C2CC2)Nc2ccn3ncc1c3n2 (stereo not drawn) [Example 66, 13-cyclopropyl-11-fluoro-6,7,13,14-tetrahydro-1,15-ethenopyrazolo[4,3-f][1,4,8,10]benzoxatriazacyclotridecin-4(5H)-one]	1900	1540	17.5
C[C@H]1Nc2ccn3ncc(c3n2)C(=O)NC[C@@H](O)COc2ccc(F)cc21 [Example 90, (7R,14R)-12-fluoro-7-hydroxy-14-methyl-5,6,7,8,14,15-hexahydro-4H-1,16-ethenopyrazolo[4,3-g][1,5,9,11]benzoxatriazacyclotetradecin-4-one]	1650	5910	1.8
CC1Nc2ccn3ncc(c3n2)C(=O)NCCOc2ccc(Cl)cc21 (stereo not drawn) [Example 84, 11-chloro-13-methyl-6,7,13,14-tetrahydro-1,15-ethenopyrazolo[4,3-f][1,4,8,10]benzoxatriazacyclotridecin-4(5H)-one]	4200	3150	0.8
O=C1NCCOc2ccc(F)cc2CCc2ccn3ncc1c3n2 [Example 102, 11-fluoro-6,7,13,14-tetrahydro-1,15-ethenopyrazolo[4,3-f][1,4,8]benzoxadiazacyclotridecin-4(5H)-one]	2300	2450	1.2
O=C1NCCOc2ccc(F)cc2CN(CCO)c2ccn3ncc1c3n2 [Example 47, 11-fluoro-14-(2-hydroxyethyl)-6,7,13,14-tetrahydro-1,15-ethenopyrazolo[4,3-f][1,4,8,10]benzoxatriazacyclotridecin-4(5H)-one]	> 10000	> 10000	31
O=C1NCCOc2ccc(F)cc2C(c2ccccc2)Nc2ccn3ncc1c3n2 (stereo not drawn) [Example 88, 11-fluoro-13-phenyl-6,7,13,14-tetrahydro-1,15-ethenopyrazolo[4,3-f][1,4,8,10]benzoxatriazacyclotridecin-4(5H)-one]	3130	1900	50.4
CN1Cc2cc(F)ccc2[S+]([O-])CCNC(=O)c2cnn3ccc1nc23 (stereo not drawn) [Example 106, 11-fluoro-14-methyl-6,7,13,14-tetrahydro-1,15-ethenopyrazolo[4,3-f][1,4,8,10]benzothiatriazacyclotridecin-4(5H)-one 8-oxide]	> 10000	> 10000	176
O=C1NCCOc2ccc(F)cc2C(C2CCC2)Nc2ccn3ncc1c3n2 (stereo not drawn) [Example 86, 13-cyclobutyl-11-fluoro-6,7,13,14-tetrahydro-1,15-ethenopyrazolo[4,3-f][1,4,8,10]benzoxatriazacyclotridecin-4(5H)-one]	1000	2000	–
C[C@H]1Nc2ccn3ncc(c3n2)C(=O)NC[C@H](O)COc2ccc(F)cc21 [Example 91, (7S,14R)-12-fluoro-7-hydroxy-14-methyl-5,6,7,8,14,15-hexahydro-4H-1,16-ethenopyrazolo[4,3-g][1,5,9,11]benzoxatriazacyclotetradecin-4-one]	961	1540	1.8
CC1COc2ccc(F)cc2CN(C)c2ccn3ncc(c3n2)C(=O)N1 (stereo not drawn) [Example 48, 11-fluoro-6,14-dimethyl-6,7,13,14-tetrahydro-1,15-ethenopyrazolo[4,3-f][1,4,8,10]benzoxatriazacyclotridecin-4(5H)-one]	6000	6000	62
NC(=O)C1Nc2ccn3ncc(c3n2)C(=O)NCCOc2ccc(F)cc21 (stereo not drawn) [Example 60, 11-fluoro-4-oxo-4,5,6,7,13,14-hexahydro-1,15-ethenopyrazolo[4,3-f][1,4,8,10]benzoxatriazacyclotridecine-13-carboxamide]	–	–	> 1000
CC1c2cc(F)ccc2OCCNC(=O)c2cnn3ccc(nc23)N1C (stereo not drawn) [Example 100, 11-fluoro-13,14-dimethyl-6,7,13,14-tetrahydro-1,15-ethenopyrazolo[4,3-f][1,4,8,10]benzoxatriazacyclotridecin-4(5H)-one]	5360	5830	0.6
C[C@H]1CNC(=O)c2cnn3ccc(nc23)N[C@H](CO)c2cc(F)ccc2O1 [Example 111, (7S,13S)-11-fluoro-13-(hydroxymethyl)-7-methyl-6,7,13,14-tetrahydro-1,15-ethenopyrazolo[4,3-f][1,4,8,10]benzoxatriazacyclotridecin-4(5H)-one]	329	2000	76
C[C@@H]1COc2ccc(F)cc2[C@@H](C)Nc2ccn3ncc(c3n2)C(=O)N1 [Example 110, (6R,13R)-11-fluoro-6,13-dimethyl-6,7,13,14-tetrahydro-1,15-ethenopyrazolo[4,3-f][1,4,8,10]benzoxatriazacyclotridecin-4(5H)-one]	163	219	0.7
C[C@H]1COc2ccc(F)cc2[C@@H](C)Nc2ccn3ncc(c3n2)C(=O)N1 [Example 109, (6S,13R)-11-fluoro-6,13-dimethyl-6,7,13,14-tetrahydro-1,15-ethenopyrazolo[4,3-f][1,4,8,10]benzoxatriazacyclotridecin-4(5H)-one]	225	398	0.86
O=C1NCCOc2ccc(F)cc2C(CC2CC2)Nc2ccn3ncc1c3n2 (stereo not drawn) [Example 89, 13-(cyclopropylmethyl)-11-fluoro-6,7,13,14-tetrahydro-1,15-ethenopyrazolo[4,3-f][1,4,8,10]benzoxatriazacyclotridecin-4(5H)-one]	1400	859	0.2
[2H]C1([2H])NC(=O)c2cnn3ccc(nc23)N(C)Cc2cc(F)ccc2OC1([2H])[2H] [Example 87, 11-fluoro-14-methyl(6,6,7,7-^2H4)-6,7,13,14-tetrahydro-1,15-ethenopyrazolo[4,3-f][1,4,8,10]benzoxatriazacyclotridecin-4(5H)-one]	1590	2730	0.3
C[C@H]1CNC(=O)c2cnn3ccc(nc23)CCc2cc(F)ccc2O1 [Example 108, (7S)-11-fluoro-7-methyl-6,7,13,14-tetrahydro-1,15-ethenopyrazolo[4,3-f][1,4,8]benzoxadiazacyclotridecin-4(5H)-one]	619	870	3.6
C[C@@H]1CNC(=O)c2cnn3ccc(nc23)N(C)Cc2cc(F)ccc2O1 [Example 94, (7R)-11-fluoro-7,14-dimethyl-6,7,13,14-tetrahydro-1,15-ethenopyrazolo[4,3-f][1,4,8,10]benzoxatriazacyclotridecin-4(5H)-one]	> 10000	> 10000	0.2
CN1Cc2cc(F)ccc2SCCNC(=O)c2cnn3ccc1nc23 [Example 104, 11-fluoro-14-methyl-6,7,13,14-tetrahydro-1,15-ethenopyrazolo[4,3-f][1,4,8,10]benzothiatriazacyclotridecin-4(5H)-one]	5750	2350	0.3
CN1Cc2cc(F)ccc2S(=O)(=O)CCNC(=O)c2cnn3ccc1nc23 [Example 107, 11-fluoro-14-methyl-6,7,13,14-tetrahydro-1,15-ethenopyrazolo[4,3-f][1,4,8,10]benzothiatriazacyclotridecin-4(5H)-one 8,8-dioxide]	> 10000	3000	75.6
COC(=O)C1Nc2ccn3ncc(c3n2)C(=O)NCCOc2ccc(F)cc21 (stereo not drawn) [Example 59, methyl 11-fluoro-4-oxo-4,5,6,7,13,14-hexahydro-1,15-ethenopyrazolo[4,3-f][1,4,8,10]benzoxatriazacyclotridecine-13-carboxylate]	–	–	> 1000
CC(C)N1Cc2cc(F)cnc2OCCNC(=O)c2cnn3ccc1nc23 [Example 62, 11-fluoro-14-(propan-2-yl)-6,7,13,14-tetrahydro-1,15-ethenopyrazolo[4,3-f]pyrido[3,2-1][1,4,8,10]oxatriazacyclotridecin-4(5H)-one]	4000	–	0.9
